Ends that are not written are not given here. PEG = not defined here

Assay type in all cases: cell-based
The test system of experiment [1] is human non-small cell lung cancer cells (A549). Put plainly: scratch assay, migration of A549 cells. Conditions: A549, 10 μM, 48 hours; control group 75.31 ± 8.19. In outline: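 Confluent A549 monolayers in 24-well plates were scratched, washed with PBS, then cultured 48 h in 2% FBS medium with peptide at 10 μM or PBS control, triplicate wells. Scratch width measured from images; migration rate (%) = (original − current width)/original width × 100.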

The test system of experiment [2] is human pharyngeal squamous-cell carcinoma cells (Fadu). As to the kind of experiment: scratch assay, migration of Fadu cells. The following applies: 10 μM, 48 hours, control group 28.76 ± 4.08. The method, boiled down:
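Confluent Fadu monolayers scratched, then cultured 48 h with 10 μM polypeptide in medium with 2% FBS; PBS control, triplicate wells. Migration rate (%) = (original − current scratch width)/original width × 100, from ≥3 images per well.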

Experiment [3] deals with human prostate cancer cells (22RV1). As to the kind of experiment: scratch assay, migration of 22RV1 cells. The following applies: 22RV1, 10 μM, 48 hours; control group 25.41 ± 5.01. The method, boiled down: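 22RV1 monolayers (seeded 1-2×10^5 cells/well) were scratched, washed, then given 2% FBS medium with 10 μM polypeptide or PBS, triplicate wells, for 48 h. Migration rate (%) = (original − current scratch width)/original width ×100, from ≥3 images per well.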

Experiment [4] relates to human breast cancer cells (MDA-MB-231). Put plainly: scratch assay, migration of MDA-MB-231 cells. Conditions: MDA-MB-231, 10 μM, 48 hours; control group 36.19 ± 5.15. In outline: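 MDA-MB-231 monolayers (1-2×10^5 cells/well) were scratched, then kept 48 h in medium with 2% FBS containing polypeptide at 10 μM, with a PBS control, in triplicate wells. Migration rate (%) was taken from scratch width: (original − current)/original ×100.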

Experiment [5] deals with human lung cancer cells (95D). As to the kind of experiment: scratch assay, migration of 95D cells. The following applies: 10 μM, 48 hours, control group 55.3 ± 3.19. In outline:
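Confluent 95D monolayers were scratched, washed with PBS and cultured 48 h in 2% FBS medium containing peptide (10 μM) or PBS control, in triplicate wells. Scratch width was measured on images; migration rate (%) = (original width − current width)/original width × 100.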

Experiment [6] relates to human colon cancer cells (HCT-116). As to the kind of experiment: scratch assay, migration of HCT-116 cells. Conditions: HCT-116, 10 μM, 48 hours; control group 47.78 ± 6.07. The method, boiled down:
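Confluent HCT-116 monolayers were scratched, washed and cultured 48 h in 2% FBS medium with peptide at 10 μM versus PBS control, triplicate wells. Migration rate (%) = (original minus current scratch width)/original width × 100, from at least 3 images per well.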

Experiment [7] has as its system human pancreatic cancer cells (PANC-1). Put plainly: transwell migration assay, PANC-1 cells. Conditions: PANC-1 transwell migration, 10 μM, 24 hours; control group 360 ± 60. In outline:
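Serum-free PANC-1 cells placed in the upper transwell chamber with complete medium below; after 4-5 h, peptide added to the upper chamber at a final 10 μM. Migration ran 24 h at 37 °C; cells on the membrane underside were methanol-fixed, crystal violet-stained and counted by microscopy.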

In experiment [8] the test system is human thyroid cancer cells (FRO). Put plainly: scratch assay, migration of FRO cells. The following applies: 10 μM, 48 hours, control group 60.34 ± 8.32. In outline:
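FRO monolayers were scratched, washed, and cultured 48 h in 2% FBS medium with polypeptide derivatives at 10 μM or PBS control, three wells per group. Migration rate (%) = (original − current scratch width)/original width × 100, measured from images.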

The test system of experiment [9] is human pancreatic cancer cells (PANC-1). As to the kind of experiment: scratch assay, migration of PANC-1 cells. Conditions: PANC-1, 10 μM, 48 hours; control group 66.65 ± 3.37. In outline:
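PANC-1 monolayers were scratched, then cultured for 48 h with 10 μM test compound in 2% FBS medium, in three parallel wells per group against a PBS control. Migration rate (%) was calculated as (original minus current scratch width) / original width × 100, from imaged wells.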

For experiment [10], the system named is human liver adenocarcinoma cells (SK-HEP-1). As to the kind of experiment: transwell migration assay, SK-HEP-1 cells. The following applies: SK-HEP-1 transwell migration, 10 μM, 24 hours; control group 1 782 ± 108, control group 2 768 ± 86. The method, boiled down: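 SK-HEP-1 cells in serum-free medium seeded in upper transwell chamber (2-3×10^5 cells/mL) over complete medium; after 4-5 h at 37 °C, 5% CO2, peptide added at 10 μM final in upper chamber. After 24 h, migrated cells fixed in methanol, crystal-violet stained, imaged and counted.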

The subject of experiment [11] is human lung squamous carcinoma cells (NCI-H226). Put plainly: scratch assay, migration of NCI-H226 cells. Conditions: NCI-H226, 10 μM, 48 hours; control group 65.31 ± 3.19. In outline:
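A straight scratch was made in confluent NCI-H226 monolayers (1-2×10^5 cells/well). Cells were then kept 48 h in 2% FBS medium with 10 μM polypeptide or PBS control, triplicate wells. Migration rate (%) = (original − current scratch width)/original width ×100, from imaged scratch widths.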

In the case of “N26: SEQ ID NO: 1 with substitution A15R, addition of one amino acid at the amino terminal and one at the carboxyl terminal (FYRVRFLAKENVTQDREDNC)”, the “Migration rate (%) (mean ± SD, P)” value is reported as 25.04 ± 6.01,** % in experiment [1]; 13.70 ± 4.57,** % in [2]; 11.42 ± 2.08,* % in [3]; 19.02 ± 5.06,* % in [4]; 37.20 ± 5.94,** % in [5]; 9.81 ± 2.92,*** % in experiment [6]. The “Migration rate (%) (mean ± SD, P)” value in experiment [8] is 11.21 ± 4.01,*** %; in experiment [9], 26.65 ± 6.37,*** %; in [11], 18.41 ± 7.90,*** %. Further, the “Number of cells (mean ± SD, P), migrated cells” value (“Number of cells (mean ± SD, P)” below) in [7] is recorded as 119 ± 17,***; in experiment [10], 68 ± 19,****.
Take “N27: SEQ ID NO: 1 with addition of one amino acid at the carboxyl terminal and PEG modification at the carboxyl terminal (YRVRFLAKENVTQDAEDNC-{PEG}; reading uncertain)”: the “Migration rate (%) (mean ± SD, P)” value is on record as 37.20 ± 6.23,** % in experiment [1]; 15.99 ± 3.96,* % in experiment [2]; 14.76 ± 2.79,* % in experiment [3]; 9.62 ± 3.01,*** % in experiment [4]; 37.20 ± 6.23,* % in experiment [5]; 24.14 ± 3.00,** % in experiment [6]. Also, the “Migration rate (%) (mean ± SD, P)” value is given as 13.42 ± 3.35,*** % in [8], 27.19 ± 7.04,*** % in [9] and 31.19 ± 5.96,*** % in experiment [11]. Besides, the “Number of cells (mean ± SD, P)” value in experiment [7] is listed as 143 ± 25,***; in experiment [10] it was 469 ± 56,**.
Turning to “N28: SEQ ID NO: 1 with deletion of positions 1-2 and 18 and PEG modification at the amino terminal ({PEG}-VRFLAKENVTQDAED; reading uncertain)”, the “Migration rate (%) (mean ± SD, P)” value in experiment [1] is on record as 17.20 ± 6.23,*** %; in experiment [2] it was 15.23 ± 3.59,* %; in experiment [3] it was 15.63 ± 2.59,* %; in [4] it was 9.36 ± 1.8,** %; in [5], 28.08 ± 3.38,*** %; in experiment [6], 9.19 ± 3.22,*** %. Further, the “Migration rate (%) (mean ± SD, P)” value in experiment [8] was 8.77 ± 2.85,*** %; in [9], 32.25 ± 5.40,** %; in experiment [11] it was 18.08 ± 7.38,*** %. Further, the “Number of cells (mean ± SD, P)” value in experiment [7] is listed as 148 ± 21,***; in [10], 51 ± 25,****.
Consider “N29: SEQ ID NO: 1 with deletion of positions 1-5 and 15-18 and PEG modification at the amino terminal ({PEG}-LAKENVTQD; reading uncertain)”, for which the “Migration rate (%) (mean ± SD, P)” value in experiment [1] is listed as 20.55 ± 3.73,*** %; in [2], 12.27 ± 2.23,** %; in experiment [3], 9.99 ± 3.89,* %; in experiment [4], 18 ± 4.47,* %; in experiment [5], 30.30 ± 4.81,** %; in [6] it was 8.24 ± 2.32,*** %. Besides, the “Migration rate (%) (mean ± SD, P)” value is 5.12 ± 2.67,*** % in [8], 40.62 ± 4.97,* % in experiment [9] and 40.30 ± 4.81,** % in [11]. For the same substance, the entries for the “Number of cells (mean ± SD, P)” value in [7] and in experiment [10] were 178 ± 31,*** and 254 ± 14,****, respectively.
On to “N30: SEQ ID NO: 1 with deletion of positions 1-5 and 15-18 and PEG modification at the carboxyl terminal (LAKENVTQD-{PEG}; reading uncertain)”, for which the “Migration rate (%) (mean ± SD, P)” value is 24.57 ± 3.19,*** % in [1]; 13.85 ± 3.59,** % in [2]; 10.82 ± 2.55,* % in experiment [3]; 9.02 ± 2.02,*** % in [4]; 33.91 ± 3.36,** % in experiment [5]; 12.41 ± 2.99,*** % in experiment [6]. Further, the results for the “Migration rate (%) (mean ± SD, P)” value in [8], in experiment [9] and in experiment [11] were 5.16 ± 1.67,*** %, 16.60 ± 5.85,*** % and 13.91 ± 7.36,*** %, respectively. Moreover, the “Number of cells (mean ± SD, P)” value in [7] is 243 ± 33,*; in experiment [10] it was 156 ± 22,****.
As for “N31: SEQ ID NO: 1 with deletion of positions 3, 4, 11 and 15-18 and PEG modification at the carboxyl terminal (YRFLAKENTQD-{PEG}; reading uncertain)”, the “Migration rate (%) (mean ± SD, P)” value in [1] is on record as 24.44 ± 8.15,** %; in [2], 12.13 ± 5.10,** %; in [3] it was 12.40 ± 2.24,* %; in experiment [4], 18.7 ± 3.05,* %; in experiment [5], 25.70 ± 3.17,** %; in experiment [6] it was 7.39 ± 2.06,*** %. In addition, the results for the “Migration rate (%) (mean ± SD, P)” value in [8], in experiment [9] and in [11] were 9.77 ± 1.96,*** %, 13.64 ± 7.59,*** % and 15.70 ± 8.17,*** %, respectively. The “Number of cells (mean ± SD, P)” value is 217 ± 40,** in experiment [7] and 90 ± 6,**** in [10].
Consider “N32: SEQ ID NO: 1 with deletion of positions 1-3, addition of one amino acid and PEG modification at the carboxyl terminal (RFLAKENVTQDAEDNC-{PEG}; reading uncertain)”, for which the “Migration rate (%) (mean ± SD, P)” value in [1] is 28.06 ± 8.55,** %; in experiment [2], 14.63 ± 4.96,* %; in [3], 8.68 ± 1.66,** %; in experiment [4] it was 13.33 ± 3.83,** %; in [5] it was 29.47 ± 3.42,** %; in experiment [6] it was 8.17 ± 1.07,*** %. Besides, the “Migration rate (%) (mean ± SD, P)” value was 7.83 ± 2.06,*** % in experiment [8], 15.49 ± 8.35,*** % in experiment [9] and 19.47 ± 6.42,*** % in experiment [11]. Moreover, the “Number of cells (mean ± SD, P)” value in experiment [7] is recorded as 219 ± 13,***; in [10], 201 ± 13,****.

Source of the values: US20220280594A1, “APPLICATION OF POLYPEPTIDE OR DERIVATIVE THEREOF” (CHENGDU HUITAI BIOMEDICINE CO., LTD., priority 2019, published 2022).
